Results reported in US4717662A (priority 1985, dated 1988).
Like-named read-outs stand apart in the source and are kept apart here.

Tests used:
alpha-amylase [1] = target: alpha-amylase (Bacillus licheniformis, UniProt P06278); details: for (-Δ G°) stabilization free energy, R T ln F: 95° C. (T = 368K); for t 1/2: salt added to 1.22 M, diluted 1×100
[2] = tested on: alpha-amylase (Taka-Therm L-170); details: pH 5.5
Description: In a typical run, 70 lbs. of corn starch was suspended in 59 liters of water and the pH adjusted to 5.0 using acetic acid. […] After gelantinization, the starch was flashed into a temperature regulated vessel maintained at 95° C. for continued liquefaction for 2 hours. In another experiment, the liquefaction of starch was carried out at pH 6.3-6.5 (pH adjusted using sodium hydroxide) in the presence of 50 ppm added calcium.
Calcium chloride was added to a level of 25 ppm (as Ca^++) and the pH adjusted to 5.5 using 10% sodium hydroxide.

alpha-amylase [3] = experiment: Comparative thermal stability of alpha-amylase with different anions at 90° C.; format: biochemical; details: percent residual activity versus time at 90° C., FIG. 2
Description: A comparative study was conducted in which the stability of alpha-amylase stabilized with acetate was compared with that containing anions known to have been added to commercially available alpha-amylase solutions. The activity of the various anion containing enzyme solutions was determined as previously described and the percent residual activity plotted as a function of time at 90° C. The results of this study are graphically represented in FIG. 2. The stabilizing effects of the different anions against thermal inactivation of the enzyme followed this order: citrate<sulphate<chloride<acetate.

Sequence of alpha-amylase (Bacillus licheniformis, UniProt P06278) (P06278 30-512): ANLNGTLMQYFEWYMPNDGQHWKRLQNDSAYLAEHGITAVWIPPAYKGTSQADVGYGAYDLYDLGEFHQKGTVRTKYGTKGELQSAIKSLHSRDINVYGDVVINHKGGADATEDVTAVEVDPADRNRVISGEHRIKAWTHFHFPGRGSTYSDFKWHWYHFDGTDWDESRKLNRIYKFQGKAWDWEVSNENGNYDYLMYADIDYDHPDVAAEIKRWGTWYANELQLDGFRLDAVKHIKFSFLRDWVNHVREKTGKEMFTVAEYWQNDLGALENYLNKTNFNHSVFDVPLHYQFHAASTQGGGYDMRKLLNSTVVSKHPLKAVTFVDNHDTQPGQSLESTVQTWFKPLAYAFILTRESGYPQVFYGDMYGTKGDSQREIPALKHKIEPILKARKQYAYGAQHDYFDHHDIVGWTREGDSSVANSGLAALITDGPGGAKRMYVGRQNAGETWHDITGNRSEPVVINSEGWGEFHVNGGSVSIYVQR

## CCCC(=O)[O-].[Na+] [CH3 CH2 CH2 COONa, sodium butyrate]
alpha-amylase [1]; pH 5.8
  (-Δ G°) stabilization free energy, R T ln F: 1.5 K cal/mole
alpha-amylase [1]; 95° C., pH 5.8, aliphatic monocarboxylic acid sodium salts, FIG. 1
  order of thermal stabilization of the enzyme: formate<acetate<propionate<butyrate
alpha-amylase [1]; 95° C., pH 5.8
  t 1/2: 13.3 min
alpha-amylase [1]; relative to formate, 95° C., pH 5.8
  additional stabilization attributed to the butyl group: about 0.6 K Cal/mol.

## O=C(O)C(c1ccccc1)c1ccccc1 [Diphenylacetic, diphenylacetic acid]
alpha-amylase [1]
  Half-Life 95° C., pH 5.8: 15 minutes
alpha-amylase [1]; pH 5.8
  (-Δ G°) stabilization free energy, R T ln F: 1.5 K cal/mole
alpha-amylase [1]; 95° C., pH 5.8, comparison among acids tested
  relative stabilizing effect in words: the most
alpha-amylase [1]; 95° C., pH 5.8
  t 1/2: 15.0 min

## CC(=O)O [Na Acetate, Sodium acetate]
[2]; Starch slurry containing 0.7 mM of sodium acetate + 25 ppm of added Ca^++, 1/2 hr
  DE Progression: 4.15
[2]; Starch slurry containing 0.7 mM of sodium acetate + 25 ppm of added Ca^++, 11/2 hr
  DE Progression: 8.87
[2]; Starch slurry containing 0.7 mM of sodium acetate + 25 ppm of added Ca^++, 1 hr
  DE Progression: 6.11
[2]; Starch slurry containing 0.7 mM of sodium acetate + 25 ppm of added Ca^++, 2 hr
  DE Progression: 10.25
[2]; Starch slurry containing 0.01 M sodium acetate and 25 ppm of added Ca^++, 1/2 hr
  DE Progression: 5.53
[2]; Starch slurry containing 0.01 M sodium acetate and 25 ppm of added Ca^++, 11/2 hr
  DE Progression: 10.82
[2]; Starch slurry containing 0.01 M sodium acetate and 25 ppm of added Ca^++, 1 hr
  DE Progression: 8.64
[2]; Starch slurry containing 0.01 M sodium acetate and 25 ppm of added Ca^++, 2 hr
  DE Progression: 13.01
alpha-amylase [3]
  order of stabilizing effects of anions against thermal inactivation of the enzyme: citrate<sulphate<chloride<acetate

## O=C(O)Cc1ccccc1 [Phenylacetic acid, phenylacetic acid]
alpha-amylase [1]
  Half-Life 95° C., pH 5.8: 7 minutes
alpha-amylase [1]; pH 5.8
  (-Δ G°) stabilization free energy, R T ln F: 1.0 K cal/mole
alpha-amylase [1]; 95° C., pH 5.8
  t 1/2: 7.0 min

## Cl [chloride]
alpha-amylase [3]
  order of stabilizing effects of anions against thermal inactivation of the enzyme: citrate<sulphate<chloride<acetate

## O=C(O)CC(O)(CC(=O)O)C(=O)O [citrate]
alpha-amylase [3]
  order of stabilizing effects of anions against thermal inactivation of the enzyme: citrate<sulphate<chloride<acetate

## O=S(=O)(O)O [sulphate]
alpha-amylase [3]
  order of stabilizing effects of anions against thermal inactivation of the enzyme: citrate<sulphate<chloride<acetate
